Test results published in PubChem BioAssay (NCI).
Values joined by “and” are separate entries in the source; they are usually repeats but may differ in a detail not shown here. Equal values may be shown once.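 Each compound was tested at five concentrations against cells in 96-well plates for 48 hours. GI50 marks 50% less growth. TGI marks complete inhibition of growth.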

How the values were obtained:
Test in all cases: NCI-60 cell line screen, 48 h
HCT-116 colon = test system: HCT-116 colon
HCT-15 colon = test system: HCT-15 colon
HT29 colon = test system: HT29 colon
LOX IMVI melanoma = test system: LOX IMVI melanoma
M14 melanoma = test system: M14 melanoma
OVCAR-4 ovarian = test system: OVCAR-4 ovarian
SF-539 CNS = test system: SF-539 CNS
SK-OV-3 ovarian = test system: SK-OV-3 ovarian
SNB-75 CNS = test system: SNB-75 CNS
U251 CNS = test system: U251 CNS

Structure (SMILES)	GI50 (HCT-116 colon)	TGI (HCT-116 colon)	GI50 (HCT-15 colon)	TGI (HCT-15 colon)	GI50 (HT29 colon)	TGI (HT29 colon)	GI50 (LOX IMVI melanoma)	TGI (LOX IMVI melanoma)	GI50 (M14 melanoma)	TGI (M14 melanoma)	GI50 (OVCAR-4 ovarian)	TGI (OVCAR-4 ovarian)	GI50 (SF-539 CNS)	TGI (SF-539 CNS)	GI50 (SK-OV-3 ovarian)	TGI (SK-OV-3 ovarian)	GI50 (SNB-75 CNS)	TGI (SNB-75 CNS)	GI50 (U251 CNS)	TGI (U251 CNS)
NC(=S)N/N=C/c1ncccc1O	2.86 µM	> 391 µM	2.67 µM	> 439 µM	2.72 µM	> 1000 µM	5.29 µM	98.7 µM and 54.6 µM	0.684 µM	4.72 µM and 2.69 µM	5.21 µM	> 929 µM	0.567 µM and 0.242 µM	2.69 µM and 1.26 µM	4.76 µM	49.1 µM and 130 µM	2.16 µM	> 51.9 µM and 60.6 µM	3.35 µM	> 89.9 µM and 557 µM
O=[N+]([O-])c1ccccc1N=Nc1c(O)[nH]c2c(Cl)cc(Cl)cc12		> 100 µM		> 100 µM		> 100 µM		> 100 µM		> 100 µM		> 100 µM		50.2 µM		> 100 µM		25.6 µM		27.7 µM
CCCCCCCCSC1=C(Cl)C(=O)C(OC)=C(OC)C1=O		19.8 µM		72.5 µM		34.8 µM		24 µM		16.9 µM		29.8 µM		32.7 µM		> 100 µM		46.3 µM		26.6 µM
CCCCOCCOC1=C(Cl)C(=O)c2c(O)ccc(O)c2C1=O		0.841 µM		0.331 µM		2.16 µM		0.946 µM		0.525 µM		1.99 µM		2.44 µM		6.65 µM		2.01 µM		3.55 µM
CCn1cc(-c2ccnc3[nH]c(-c4cccc(CN(C)C)c4)cc23)c(-c2ccc(NC(=O)N(C)C)cc2)n1	0.322 µM and 0.455 µM	17.7 µM and > 10 µM	2.85 µM and 3.15 µM	27.2 µM and > 10 µM	1.89 µM and 1.4 µM	22.6 µM and > 10 µM	0.297 µM and 0.239 µM	1.88 µM and 5.2 µM	1.91 µM and 2.31 µM	16.9 µM and > 10 µM	0.479 µM and 3.41 µM	37.1 µM and > 10 µM	0.418 µM and 1.38 µM	13.3 µM and > 10 µM	2.16 µM and 3.83 µM	15.2 µM and > 10 µM	0.217 µM and 0.461 µM	2.38 µM and 3.42 µM	2.34 µM and 4.03 µM	19.1 µM and > 10 µM
O=C1C/C(Br)=C\c2ccccc2-c2ccccc21		3.71 µM		3.36 µM		4.72 µM		2.43 µM		5.27 µM		7.88 µM		4.85 µM		10.1 µM		7.65 µM		6.83 µM
O=c1[nH]c(-c2cccc(F)c2)cc2cc(F)ccc12	0.195 µM	> 100 µM	0.119 µM	> 100 µM	0.261 µM	> 100 µM	0.613 µM	> 100 µM	0.16 µM	> 100 µM	> 90.9 µM	> 100 µM	0.272 µM	1.7 µM	0.616 µM	> 100 µM	0.211 µM	> 100 µM	0.47 µM	> 100 µM
CCOC(=O)c1c(C)c2c(n1Cc1ccccc1)CSCC2=O	11.8 µM	31.9 µM	19.7 µM	> 100 µM	18.7 µM	> 100 µM	14.8 µM	50.9 µM	20 µM	56.3 µM	17.4 µM	> 100 µM	17.5 µM	50.9 µM	23.8 µM	> 100 µM	18.4 µM	> 100 µM	22.4 µM	> 100 µM
O=C1c2cccc3cccc(c23)C(=O)N1CCN(CCO)CCO		46.6 µM		56.2 µM		76.1 µM		34.5 µM		46.8 µM		66 µM		86.5 µM		> 100 µM		> 100 µM		> 100 µM
